Assays:
[1] = system: PAIGB expression in U2OS cells; assay: RT-PCR and real time PCR of PAIGB expression in U2OS cells; type: cell-based, human; conditions: 1 or 10 nM
Method: RNA samples were subject to RT-PCR and Taq-man analysis using probe and primers to PAIGB polynucleotide sequences and GAPDH as well as 18S ribosomal RNA. RT-PCR was done using TaKaRa kit (Panvera, Shiga, Japan) according to manufacturer recommendation. RT reaction was done under following conditions: 30° C. for 10 min, 42° C. for 50 min, 99° C. for 5 min and 4° C. for 5 min. PCR conditions were: 94° C. for 5 min, 35 cycles of 94° C. for 2 min, 62° C. for 30″, 72° C. for 1 min and 30 sec, and 72° C. for 10 min. The PCR products were separated on 1% agarose gel.
Applicants performed multiplex real time PCR (TaqMan) analysis on previously DNAsed samples using gene specific probe and primers and 18S ribosomal RNA probe and primer sets purchased from Applied Biosystem. (Foster City, Calif.) The samples were DNAsed according to the protocol provided by Ambion (DNA-free kit). TaqMan probe and primers for PAIGB was identify using Primer Express computer program. The sequence for rat PAIGB TaqMan probe was 6FAM-5′[…] (SEQ ID NO: 16) forward and reverse primers were 5′[…] 3′ (SEQ ID NO:17) and 5′ […] 3′ (SEQ ID NO:18) respectively. The final concentrations for probes were 500 nM and 40 nM for PAIGB and 18S ribosomal RNA or GAPDH respectively. […]

[2] = system: PAIGB protein; assay: Immunohistochemistry of PAIGB protein in mouse calvariae; type: in vivo; conditions: Swiss Webster mice, 20 μg/kg/day sc onto the calvariae, 18 days
Method: Immunohistochemical analysis of PAIGB protein express can be assessed in various animal species such as human bone biopsy samples, mouse, rat, or dog bone samples etc., that have been treated with potential bone anabolic agents. For example, Swiss Webster mice were treated with 20 μg/kg/day PTH 1-34 subcutaneously onto the calvariae for 18 days. Following the 18 days, the calvariae samples were harvested and PAIGB protein expression was analyzed using the PAIGB polyclonal antibody (FIG. 20, FIG. 21 and FIG. 22).
The mouse calvariae was gently dissected and fixed in 10% phosphate-buffered formalin. After fixation, the calvariae were decalcified in TBD-2 decalcifying agent (SHANDON, Cat. # 6764003) for 7-8 hrs, dehydrated in graded alcohol, embedded in paraffin. The calvariae was bisected perpendicular to the sagittal suture through the central portion of the parietal bones parallel to the lambdoidal and coronal sutures and embedded in paraffin. Four to six 5 μm-thick representative, non-consecutive step sections were cut. Various sections were stained with hematoxylin and eosin (H&E) (Sigma, St. Louis, Mo.) and adjacent section were used for immunohistochemistry. The bone samples were then deparafinized in xylene and rehydrated in graded ethanol and PBS. […] The peroxidase was detected using peroxidase substrate kit DAB (SK-4100, Vector Laboratories).

## human PTH (1-34)
[1]
  PAIGB expression in human U2OS osteoblastic cells: induction
[2]
  PAIGB protein expression in calvariae (immunohistochemistry): induced
